Measurements from article PMC7822176, “Pursuing the Complexity of Alzheimer’s Disease: Discovery of Fluoren-9-Amines as Selective Butyrylcholinesterase Inhibitors and N-Methyl-D-Aspartate Receptor Antagonists” (Biomolecules, 2020).
Like-named read-outs stand apart in the source and are kept apart here.

Assays:
hBChE [1] = target: T1, hBChE (Homo sapiens, UniProt P06276); test: Kinetic study of hBChE inhibition; assay type: biochemical
T1 construct: made in house
Procedure: The kinetic study of hBChE was performed by using the above-mentioned modified Ellman’s method. The values of Vmax and Km of the Michaelis-Menten kinetics, as well as the value of Ki, were calculated by nonlinear regression from the substrate velocity curves. Linear regression was used for calculation of the Cornish-Bowden plots. All calculations were performed using GraphPad Prism software version 6.07 for Windows (San Diego, CA, USA).

hBChE [2] = target: T1, hBChE; test: biochemical; assay type: biochemical; conditions: for IC50: mean of at least three experiments, read-out: IC50 ± SEM hBChE
Procedure: The human recombinant BChE and AChE were prepared at the Department of Toxicology and Military Pharmacy (Faculty of Military Health Sciences, Hradec Kralove, Czech Republic). 5,5′-dithiobis(2-nitrobenzoic acid) (Ellman’s reagent, DTNB), phosphate buffer (PB, pH 7.4), acetylthiocholine (ATC), and butyrylthiocholine (BTC) were purchased from Sigma-Aldrich, Prague, Czech Republic. For measuring purposes, polystyrene Nunc 96-well microplates with a flat bottom shape (Thermo Fisher Scientific, Waltham, MA, USA) were utilized. All the assays were carried out in 0.1-M KH2PO4/K2HPO4 buffer, pH 7.4. Enzyme solutions were prepared at 2.0 units/mL in 2-mL aliquots. […] Tested compounds were preincubated for 5 min. The reaction was started by the immediate addition of 20 µL of the substrate. […] Each concentration was assayed in triplicate. Software GraphPad Prism 5 (San Diego, CA, USA) was used for the statistical data evaluation.

[3] = MTT cell viability assay, CHO-K1; assay type: cell-based; conditions: Chinese hamster, CHO-K1 cells, 24 h exposure, mean of three independent measurements, read-out: IC50 ± SEM CHO-K1 cell viability
Procedure: (§1) Standard MTT assay (3-(4,5-dimethylthiazol-2-yl)-2,5-diphenyltetrazolium bromide; Sigma Aldrich, Prague, Czech Republic) was used according to the manufacturer’s protocols on the CHO-K1 (Chinese hamster ovary, ECACC, Salisbury, UK) and hCMEC/D3 (Sigma Aldrich, St. Louis, MO, USA). The cells were cultured according to recommended conditions and seeded in a density of 8000 cells per well, as described previously. […] CHO-K1 cells were exposed to serially diluted tested compounds for 24 h. Then, the medium was replaced by a fresh medium containing 0.5 mg/mL of MTT, and the cells were allowed to produce formazan for another approximately 3 h under surveillance. Thereafter, the medium with MTT was removed, and crystals of formazan were dissolved in DMSO (100 µL/well; PENTA s.r.o., Prague, Czech Republic). Cell viability was assessed spectrophotometrically by the amount of formazan produced. The absorbance was measured at 570 nm with a 650-nm reference wavelength on Synergy HT (BioTek, Winooski, VT, USA). The IC50 value (half-maximal inhibitory concentration) was calculated from the control-subtracted triplicates using nonlinear regression (four parameters) by GraphPad Prism 7.03 software (GraphPad Software Inc., San Diego, CA, USA) for the CHO-K1 cell line, and for hCMEC/D3 cells, the cell viability was expressed as the % relative to the untreated control. Final IC50 and SEM (standard error of the mean) values were obtained as a mean of three independent measurements.

hCMEC/D3 cell monolayer = test: in vitro; conditions: for potential of BBB permeation (in words): Papp correlated to reference drugs
Procedure: (§2) The D3 assay evaluates the ability of compounds to diffuse from the donor compartment through the D3/hCMEC cell membrane into the acceptor compartment. The D3 cells were seeded on a PET membrane (area 1.12 cm^2) with 3-µm pores of the 12-well plates with 12-mm inserts. […] The donor solution (750 µL) was added to the donor compartment (insert), and the same volume of Opti-MEM was added into the acceptor. The concentration of the drug in both compartments was measured by UV-VIS spectrophotometry in 5, 15, 30, and 60 min of incubation in triplicates. The apparent permeability coefficient (Papp) was calculated from the concentration ratios. Tightness of the D3 monolayer was conducted by the fluorescein isothiocyanate (FITC) test after each experiment. […] (1) Papp= dC/dt × Vr/A × C0 • A: area of the well/cell monolayer, • dC/dt: amount in the receiver compartment in given time, • Vr: volume of the receiver compartment, and • C0: the initial concentration of tested compounds.

in vitro = conditions: human
Procedure: as §2

GluN1/GluN2A receptors = target: T2, GluN1/GluN2A receptors (Homo sapiens, UniProt Q05586+Q12879); test: cell-based; conditions: for inhibition at 10 µM: HEK293, read-out: RI (%) ± SEM GluN1/GluN2A
T2 construct: expressed in transfected cells; host or cells: HEK293
T2 sequence (Q12879 23-1464, other chains not shown): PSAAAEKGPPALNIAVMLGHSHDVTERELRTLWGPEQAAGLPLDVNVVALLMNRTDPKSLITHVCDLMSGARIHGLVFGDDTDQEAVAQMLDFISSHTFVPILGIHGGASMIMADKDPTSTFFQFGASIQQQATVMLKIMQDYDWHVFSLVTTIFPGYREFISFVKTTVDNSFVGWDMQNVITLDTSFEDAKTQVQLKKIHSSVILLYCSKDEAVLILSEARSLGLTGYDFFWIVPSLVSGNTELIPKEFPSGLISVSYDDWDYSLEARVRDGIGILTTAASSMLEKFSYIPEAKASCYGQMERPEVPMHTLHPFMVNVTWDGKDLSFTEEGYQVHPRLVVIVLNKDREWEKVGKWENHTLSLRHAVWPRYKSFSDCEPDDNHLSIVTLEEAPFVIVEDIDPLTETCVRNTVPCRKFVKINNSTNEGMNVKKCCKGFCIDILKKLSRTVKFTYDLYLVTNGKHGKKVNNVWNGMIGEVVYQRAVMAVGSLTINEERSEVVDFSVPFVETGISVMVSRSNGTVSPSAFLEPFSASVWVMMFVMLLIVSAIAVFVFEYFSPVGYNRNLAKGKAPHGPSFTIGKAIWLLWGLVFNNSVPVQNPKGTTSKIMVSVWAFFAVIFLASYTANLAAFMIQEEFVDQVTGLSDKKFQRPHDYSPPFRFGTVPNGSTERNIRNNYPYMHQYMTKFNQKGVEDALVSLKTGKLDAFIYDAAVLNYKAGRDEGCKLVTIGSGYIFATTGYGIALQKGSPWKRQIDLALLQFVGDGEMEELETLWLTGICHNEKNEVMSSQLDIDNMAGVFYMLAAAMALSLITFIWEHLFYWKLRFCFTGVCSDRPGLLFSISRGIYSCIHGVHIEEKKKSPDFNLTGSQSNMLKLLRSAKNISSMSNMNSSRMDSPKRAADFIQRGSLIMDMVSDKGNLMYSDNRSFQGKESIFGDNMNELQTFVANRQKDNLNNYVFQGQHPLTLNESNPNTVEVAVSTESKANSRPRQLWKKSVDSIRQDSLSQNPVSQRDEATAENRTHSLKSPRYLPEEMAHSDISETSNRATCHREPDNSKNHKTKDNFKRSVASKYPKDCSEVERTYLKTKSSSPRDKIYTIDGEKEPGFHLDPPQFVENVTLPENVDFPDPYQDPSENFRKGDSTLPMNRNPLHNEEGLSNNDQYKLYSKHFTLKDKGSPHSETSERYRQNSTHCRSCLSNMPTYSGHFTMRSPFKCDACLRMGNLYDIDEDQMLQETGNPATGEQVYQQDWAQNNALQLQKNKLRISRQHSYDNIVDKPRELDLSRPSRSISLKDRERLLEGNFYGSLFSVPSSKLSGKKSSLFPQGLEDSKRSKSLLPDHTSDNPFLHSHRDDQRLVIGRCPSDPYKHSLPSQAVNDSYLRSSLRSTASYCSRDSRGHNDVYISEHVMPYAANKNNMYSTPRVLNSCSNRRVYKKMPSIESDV
Procedure: (§3) The cells grown in a 24-well plate were put in Opti-MEM I media containing a mixture of 0.9 µL of MATra-A Reagent (IBA) and 900 ng of DNA vectors carrying the human versions of the GluN1-1a (GluN1), GluN2A, or GluN2B subunits and green fluorescent protein (GFP; all vectors were added in equal ratio). The cells were placed on a strong magnet plate for 30 min and then trypsinized; resuspended in Opti-MEM I containing 1% FBS, 20-mM MgCl2, and 3-mM kynurenic acid (to inhibit the NMDAR-induced excitotoxicity); and plated on poly-L-lysine-coated glass coverslips. The electrophysiological experiments were executed 24–48 h after transfection.
(§4) Whole-cell patch-clamp recordings were conducted at room temperature on the GFP-positive HEK293 cells using an Axopatch 200B amplifier (Molecular Devices, San Jose, CA, USA); the series resistance compensation was >80% for all cells. […] The WAS02 application system, which can reach the solution exchange time around the recorded cell of 10–20 ms, was used to apply the extracellular solution (ECS).

GluN1/GluN2B receptors = target: T3, GluN1/GluN2B receptors (Homo sapiens, UniProt Q05586+Q13224); test: cell-based; conditions: for inhibition at 10 µM: HEK293, read-out: RI (%) ± SEM GluN1/GluN2B
T3 construct: expressed in transfected cells; host or cells: HEK293
T3 sequence (Q13224 27-1484, other chains not shown): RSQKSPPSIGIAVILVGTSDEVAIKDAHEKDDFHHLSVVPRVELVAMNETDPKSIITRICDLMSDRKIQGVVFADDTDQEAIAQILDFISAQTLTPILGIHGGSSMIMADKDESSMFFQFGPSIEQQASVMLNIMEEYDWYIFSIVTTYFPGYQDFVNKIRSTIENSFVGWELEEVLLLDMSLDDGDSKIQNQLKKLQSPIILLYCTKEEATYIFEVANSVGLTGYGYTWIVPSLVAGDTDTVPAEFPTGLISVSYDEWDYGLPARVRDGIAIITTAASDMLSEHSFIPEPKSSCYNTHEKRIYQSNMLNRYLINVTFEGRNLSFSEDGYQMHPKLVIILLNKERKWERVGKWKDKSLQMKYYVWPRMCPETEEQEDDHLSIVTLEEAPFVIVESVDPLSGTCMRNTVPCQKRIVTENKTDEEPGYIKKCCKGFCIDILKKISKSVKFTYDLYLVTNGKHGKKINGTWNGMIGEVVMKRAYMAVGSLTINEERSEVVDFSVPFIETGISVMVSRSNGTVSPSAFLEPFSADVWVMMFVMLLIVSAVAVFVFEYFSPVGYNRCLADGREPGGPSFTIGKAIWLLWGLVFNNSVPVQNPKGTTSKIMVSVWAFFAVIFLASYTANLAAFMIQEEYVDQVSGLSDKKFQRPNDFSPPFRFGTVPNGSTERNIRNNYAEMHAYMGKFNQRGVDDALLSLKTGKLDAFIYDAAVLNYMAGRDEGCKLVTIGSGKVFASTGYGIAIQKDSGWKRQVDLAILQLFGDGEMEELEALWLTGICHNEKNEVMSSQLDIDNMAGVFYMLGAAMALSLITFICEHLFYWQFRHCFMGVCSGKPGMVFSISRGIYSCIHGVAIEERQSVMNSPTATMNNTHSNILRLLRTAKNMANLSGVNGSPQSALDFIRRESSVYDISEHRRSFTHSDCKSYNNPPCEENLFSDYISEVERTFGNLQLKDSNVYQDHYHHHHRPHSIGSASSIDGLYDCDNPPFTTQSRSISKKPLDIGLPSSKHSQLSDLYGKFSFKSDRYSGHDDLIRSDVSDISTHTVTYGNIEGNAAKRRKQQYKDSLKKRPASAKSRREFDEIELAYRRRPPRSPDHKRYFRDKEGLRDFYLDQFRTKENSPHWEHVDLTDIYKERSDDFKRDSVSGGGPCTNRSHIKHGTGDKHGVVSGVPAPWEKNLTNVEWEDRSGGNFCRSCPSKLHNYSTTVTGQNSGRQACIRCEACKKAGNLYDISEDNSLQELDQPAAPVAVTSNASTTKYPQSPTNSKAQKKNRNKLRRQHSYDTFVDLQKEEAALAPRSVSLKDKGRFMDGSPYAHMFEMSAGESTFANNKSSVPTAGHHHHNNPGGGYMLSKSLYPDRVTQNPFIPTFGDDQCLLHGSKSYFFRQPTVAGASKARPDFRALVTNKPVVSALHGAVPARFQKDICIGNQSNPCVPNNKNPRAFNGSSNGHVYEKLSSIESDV
Procedure: as §3, §4

[4] = MTT cell viability test, hCMEC/D3; assay type: cell-based; conditions: human, read-out: % viable cells hCMEC/D3
Procedure: as §1, with “The IC50 value (half-maximal inhibitory concentration) was calculated from the control-subtracted triplicates using nonlinear regression (four parameters) by GraphPad Prism 7.03 software (GraphPad Software Inc., San Diego, CA, USA) for the CHO-K1 cell line, and for hCMEC/D3 cells, the cell viability was expressed as the % relative to the untreated control.” left out

NMDA receptor = conditions: read-out: IC50 inhibition of NMDA receptor responses; at −60 mV; cited from earlier work
[5] = final prediction from Papp correlated to reference drugs

T1 sequence (P06276 29-602): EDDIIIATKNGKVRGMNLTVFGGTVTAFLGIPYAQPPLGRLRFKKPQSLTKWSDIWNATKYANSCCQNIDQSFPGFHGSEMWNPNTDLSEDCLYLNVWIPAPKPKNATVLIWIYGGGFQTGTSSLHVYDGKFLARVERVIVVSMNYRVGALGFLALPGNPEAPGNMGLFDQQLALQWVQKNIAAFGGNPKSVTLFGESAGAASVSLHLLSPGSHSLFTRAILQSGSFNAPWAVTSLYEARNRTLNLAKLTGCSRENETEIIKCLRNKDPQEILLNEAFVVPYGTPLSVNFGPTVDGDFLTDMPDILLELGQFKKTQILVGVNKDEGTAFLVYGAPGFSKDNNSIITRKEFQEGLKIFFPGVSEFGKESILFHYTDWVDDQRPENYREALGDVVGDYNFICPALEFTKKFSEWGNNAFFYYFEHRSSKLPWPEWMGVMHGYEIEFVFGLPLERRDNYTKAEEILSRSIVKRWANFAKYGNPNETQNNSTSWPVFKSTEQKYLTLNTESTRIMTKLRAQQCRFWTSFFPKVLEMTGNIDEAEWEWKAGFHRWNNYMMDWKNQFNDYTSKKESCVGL

Structure (SMILES) | IC50 (hBChE [2]) | IC50 at 24 h [3] | potential of BBB permeation (in words) (hCMEC/D3 cell monolayer) | CNS (+/−) (hCMEC/D3 cell monolayer; [5]) | Papp (in vitro) | inhibition at 10 µM (GluN1/GluN2A receptors) | inhibition at 10 µM (GluN1/GluN2B receptors) | viability at 50 µM ([4]; hCMEC/D3 cells) | viability at 100 µM ([4]; hCMEC/D3 cells) | also measured
Cl.c1ccc2c(c1)-c1ccccc1C2NC1CCCCC1 [Compound 3c, N-Cyclohexyl-9H-fluoren-9-amine hydrochloride] | 470 ± 10 nM | 111 ± 10 µM | low potential to passively pass the BBB | CNS − | 12.3 ± 2.33 ×10⁻⁶ cm/s | 41 ± 3.56% | 17.2 ± 2.39% | 93.4% | 82.9% | Ki (hBChE [1]; nonlinear regression, substrate butyrylthiocholine): 173 ± 25 nM; type of inhibition (hBChE [1]; sum-of-squares F-test, Cornish–Bowden plot): competitive inhibition; times less active compared to THA (hBChE inhibition) (hBChE [2]): 20
Nc1c2c(nc3ccccc13)CCCC2 [THA, Tacrine, reference compound] |  |  |  |  | 22.3 ± 2.01 ×10⁻⁶ cm/s |  |  |  |  | IC50 (NMDA receptor): 20 µM; CNS (+/−) (hCMEC/D3 cell monolayer): CNS +; viability at 50 µM [4]: 91.1%; viability at 100 µM [4]: 94.5%
CCCCNC1c2ccccc2-c2ccccc21.Cl [Compound 3m, N-Butyl-9H-fluoren-9-amine hydrochloride] | 1020 ± 30 nM | 140 ± 15 µM | corresponds to those of standard drugs with high CNS permeability | CNS + | 18.5 ± 2.37 ×10⁻⁶ cm/s | 36.2 ± 3.73% | 51.2 ± 3.24% | 82.1% | 80.1% | h 40 mV GluN1/GluN2A (Hill coefficient) (GluN1/GluN2A receptors; 40 mV): 1.23 ± 0.13; IC50 (GluN1/GluN2A receptors; 40 mV, read-out: IC50 40 mV GluN1/GluN2A): 114 ± 26.6 µM; h −60 mV GluN1/GluN2A (Hill coefficient) (GluN1/GluN2A receptors; −60 mV): 1.19 ± 0.14; IC50 (GluN1/GluN2A receptors; −60 mV, read-out: IC50 −60 mV GluN1/GluN2A): 14.2 ± 1.6 µM; h 40 mV GluN1/GluN2B (Hill coefficient) (GluN1/GluN2B receptors; 40 mV): 0.97 ± 0.10; IC50 (GluN1/GluN2B receptors; 40 mV, read-out: IC50 40 mV GluN1/GluN2B): 221 ± 12.2 µM; h −60 mV GluN1/GluN2B (Hill coefficient) (GluN1/GluN2B receptors; −60 mV): 1.12 ± 0.05; IC50 (GluN1/GluN2B receptors; −60 mV, read-out: IC50 −60 mV GluN1/GluN2B): 11.7 ± 1.72 µM
